In ChEMBL document CHEMBL1268998, “Detection of Rap1A as a yessotoxin binding protein from blood cell membranes” (Bioorg Med Chem Lett, 2010) one finds Kd data, which are given here for 2 compounds.

Holding throughout (type): cell membranes
The target in assay [1] is T1, Ras-related protein Rap-1A (Homo sapiens, UniProt P62834).
T1 sequence (P62834 whole entry): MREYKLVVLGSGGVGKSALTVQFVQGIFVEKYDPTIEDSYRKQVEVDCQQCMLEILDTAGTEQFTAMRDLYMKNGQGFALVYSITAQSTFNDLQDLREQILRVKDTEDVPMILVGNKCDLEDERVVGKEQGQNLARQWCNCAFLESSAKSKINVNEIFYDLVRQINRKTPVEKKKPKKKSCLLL
The experiment in a line: Binding affinity to RAP1A in human RBC membrane by surface plasmon resonance analysis with inverted configuration. In general terms: Surface plasmon resonance follows binding to a sensor surface in real time, without labels.

Assay [2] concerns the target T1, Ras-related protein Rap-1A. The experiment in a line: Binding affinity to RAP1A in human RBC membrane by Western blot analysis.
Assay [3] has as its target T1, Ras-related protein Rap-1A. The experiment in a line: Binding affinity to RAP1A in human RBC membrane by surface plasmon resonance analysis.

Each structure is given as a SMILES string.

As a reminder, the Kd is the constant that tells how readily two partners part at equilibrium. A high value points to a looser complex. On to `C=CCC(=C)/C=C/[C@@](C)(O)[C@H]1O[C@@H]2C[C@@H]3O[C@@H]4C[C@@H]5O[C@@H]6C[C@@H]7O[C@@H]8C[C@@H]9O[C@@H]%10C[C@@H]%11O[C@](C)(CCO)[C@@H](O)C[C@H]%11O[C@H]%10C[C@H]9O[C@H]8CC[C@@]7(C)O[C@@]6(C)CC[C@H](C)[C@H]5O[C@H]4[C@@H](O)[C@@]3(C)O[C@H]2CC1=C` [DESULFO-YESSOTOXIN], for which the Kd in assay [1] came out at 500 nM.

Turning to `C=CCC(=C)/C=C/[C@@](C)(O)[C@H]1O[C@@H]2C[C@@H]3O[C@@H]4C[C@@H]5O[C@@H]6C[C@@H]7O[C@@H]8C[C@@H]9O[C@@H]%10C[C@@H]%11O[C@](C)(CCOS(=O)(=O)O)[C@@H](OS(=O)(=O)O)C[C@H]%11O[C@H]%10C[C@H]9O[C@H]8CC[C@@]7(C)O[C@@]6(C)CC[C@H](C)[C@H]5O[C@H]4C[C@@]3(C)O[C@H]2CC1=C` [YESSOTOXIN], the Kd in assay [2] and in assay [3] was 4 µM each time.
